Data as given in patent US9980943B2, “Methods of treating muscular dystrophy” (BOARD OF REGENTS OF THE NEVADA SYSTEM OF HIGHER EDUCATION, …, priority 2013, dated 2018).

What was measured:
Assay type in all cases: cell-based, mouse
[1] = tested on: α7 integrin (LacZ reporter in α7βgal+/− myoblasts); assay: Myoblast α7+/LacZ integrin FDG assay (Burkin assay in myoblasts, 96-well); details: 96-well; for Burkin Assay in Myoblasts, value relative to DMSO: SU9516 analogs, N=3-6; for Burkin Assay in Myoblasts, signal relative to DMSO: α7+/LacZ myoblasts
[2] = tested on: α7 integrin (LacZ reporter in α7+/LacZ myotubes); assay: Myotube α7 integrin FDG assay (Burkin assay in myotubes, 96-well); details: for Burkin Assay in Myotubes, value relative to DMSO: SU9516 analogs, 96-well, N=3-6
[3] = tested on: β-galactosidase in CMV-LacZ C2C12 myoblasts; assay: CMV-LacZ secondary screen in C2C12 myoblasts (β-Gal stabilizing assay); details: for CMV-LACZ in Myoblasts, value relative to DMSO: SU9516 analogs, C2C12 CMV-LacZ, N=2; for CMV-LACZ in Myoblasts (β-galactosidase activity relative to DMSO): CMV-LacZ C2C12 myoblasts
In short: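 β-Gal level was the read-out, measured in a clonal C2C12 line expressing LacZ from a CMV promoter. Dose-response curves used six concentrations, 0.5 μM up to 40 μM, with duplicate points.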

[4] = tested on: β-galactosidase in CMV-LacZ C2C12 myotubes; assay: CMV-LacZ secondary screen in C2C12 myotubes (β-Gal stabilizing assay); details: for CMV-LACZ in Myotubes, value relative to DMSO: SU9516 analogs, C2C12 CMV-LacZ, N=2; for CMV-LACZ in Myotubes, signal relative to DMSO: C2C12 CMV-LacZ myotubes, fold relative to DMSO
In short: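 β-gal stabilization was measured in C2C12 myoblasts or myotubes stably transfected with a CMV-driven LacZ construct, using the FDG β-gal assay. Compounds were tested in dose-response at 0.5, 1, 5, 10, 20 and 40 μM, with two replicates per point.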

Cc1ccc2c(c1)/C(=C/c1ccccc1C)C(=O)N2 [MLS001202402-01]
Burkin Assay in Myoblasts, value relative to DMSO ([1]; 0.5 uM): 1.051 | Burkin Assay in Myoblasts, value relative to DMSO ([1]; 1 uM): 0.9034 | Burkin Assay in Myoblasts, value relative to DMSO ([1]; 5 uM): 0.9255 | Burkin Assay in Myoblasts, value relative to DMSO ([1]; 10 uM): 1.08 | Burkin Assay in Myoblasts, value relative to DMSO ([1]; 20 uM): 0.6481 | Burkin Assay in Myoblasts, value relative to DMSO ([1]; 40 uM): 0.325 | Burkin Assay in Myotubes, value relative to DMSO ([2]; 0.5 uM): 0.9628 | Burkin Assay in Myotubes, value relative to DMSO ([2]; 1 uM): 0.8962 | Burkin Assay in Myotubes, value relative to DMSO ([2]; 5 uM): 0.9629 | Burkin Assay in Myotubes, value relative to DMSO ([2]; 10 uM): 1.0295 | Burkin Assay in Myotubes, value relative to DMSO ([2]; 20 uM): 0.5907 | Burkin Assay in Myotubes, value relative to DMSO ([2]; 40 uM): 0.3717 | CMV-LACZ in Myoblasts, value relative to DMSO ([3]; 0.5 uM): 1.0546 | CMV-LACZ in Myoblasts, value relative to DMSO ([3]; 1 uM): 1.0106 | CMV-LACZ in Myoblasts, value relative to DMSO ([3]; 5 uM): 0.8771 | CMV-LACZ in Myoblasts, value relative to DMSO ([3]; 10 uM): 0.7598 | CMV-LACZ in Myoblasts, value relative to DMSO ([3]; 20 uM): 0.7204 | CMV-LACZ in Myoblasts, value relative to DMSO ([3]; 40 uM): 0.4819 | CMV-LACZ in Myotubes, value relative to DMSO ([4]; 0.5 uM): 0.9200 | CMV-LACZ in Myotubes, value relative to DMSO ([4]; 1 uM): 0.8695 | CMV-LACZ in Myotubes, value relative to DMSO ([4]; 5 uM): 0.9237 | CMV-LACZ in Myotubes, value relative to DMSO ([4]; 10 uM): 0.8015 | CMV-LACZ in Myotubes, value relative to DMSO ([4]; 20 uM): 0.8847 | CMV-LACZ in Myotubes, value relative to DMSO ([4]; 40 uM): 0.8129

Cc1[nH]c(=O)[nH]c(=O)c1S(=O)(=O)Nc1ccc(F)cc1Cl [MLS001200149-01]
Burkin Assay in Myoblasts, signal relative to DMSO ([1]; 0.5 uM): 1.039 | Burkin Assay in Myoblasts, signal relative to DMSO ([1]; 1 uM): 1.156 | Burkin Assay in Myoblasts, signal relative to DMSO ([1]; 5 uM): 1.0782 | Burkin Assay in Myoblasts, signal relative to DMSO ([1]; 10 uM): 0.998 | Burkin Assay in Myoblasts, signal relative to DMSO ([1]; 20 uM): 1.021 | Burkin Assay in Myoblasts, signal relative to DMSO ([1]; 40 uM): 0.9876 | Burkin Assay in Myotubes, α7 integrin LacZ reporter signal relative to DMSO ([2]; 0.5 uM): 1.26 | Burkin Assay in Myotubes, α7 integrin LacZ reporter signal relative to DMSO ([2]; 1 uM): 1.072 | Burkin Assay in Myotubes, α7 integrin LacZ reporter signal relative to DMSO ([2]; 5 uM): 1.069 | Burkin Assay in Myotubes, α7 integrin LacZ reporter signal relative to DMSO ([2]; 10 uM): 1.094 | Burkin Assay in Myotubes, α7 integrin LacZ reporter signal relative to DMSO ([2]; 20 uM): 0.9286 | Burkin Assay in Myotubes, α7 integrin LacZ reporter signal relative to DMSO ([2]; 40 uM): 0.8363 | CMV-LACZ in Myoblasts (β-galactosidase activity relative to DMSO) ([3]; 0.5 uM): 1.1234 | CMV-LACZ in Myoblasts (β-galactosidase activity relative to DMSO) ([3]; 1 uM): 0.9203 | CMV-LACZ in Myoblasts (β-galactosidase activity relative to DMSO) ([3]; 5 uM): 0.9489 | CMV-LACZ in Myoblasts (β-galactosidase activity relative to DMSO) ([3]; 10 uM): 1.0523 | CMV-LACZ in Myoblasts (β-galactosidase activity relative to DMSO) ([3]; 20 uM): 0.9363 | CMV-LACZ in Myoblasts (β-galactosidase activity relative to DMSO) ([3]; 40 uM): 1.1552 | CMV-LACZ in Myotubes, signal relative to DMSO ([4]; 0.5 uM): 0.8378 | CMV-LACZ in Myotubes, signal relative to DMSO ([4]; 1 uM): 0.9933 | CMV-LACZ in Myotubes, signal relative to DMSO ([4]; 5 uM): 0.9974 | CMV-LACZ in Myotubes, signal relative to DMSO ([4]; 10 uM): 0.8176 | CMV-LACZ in Myotubes, signal relative to DMSO ([4]; 20 uM): 0.8318 | CMV-LACZ in Myotubes, signal relative to DMSO ([4]; 40 uM): 0.9424

O=CN1CCN(C(=O)CC(c2ccccc2)c2cc(Br)ccc2O)CC1 (stereo not drawn) [MLS001000874-01]
Burkin Assay in Myoblasts, signal relative to DMSO ([1]; 0.5 uM): 1.175 | Burkin Assay in Myoblasts, signal relative to DMSO ([1]; 1 uM): 1.033 | Burkin Assay in Myoblasts, signal relative to DMSO ([1]; 5 uM): 1.077 | Burkin Assay in Myoblasts, signal relative to DMSO ([1]; 10 uM): 0.8677 | Burkin Assay in Myoblasts, signal relative to DMSO ([1]; 20 uM): 1.007 | Burkin Assay in Myoblasts, signal relative to DMSO ([1]; 40 uM): 0.9545 | Burkin Assay in Myotubes, α7 integrin LacZ reporter signal relative to DMSO ([2]; 0.5 uM): 0.9357 | Burkin Assay in Myotubes, α7 integrin LacZ reporter signal relative to DMSO ([2]; 1 uM): 0.8646 | Burkin Assay in Myotubes, α7 integrin LacZ reporter signal relative to DMSO ([2]; 5 uM): 1.0731 | Burkin Assay in Myotubes, α7 integrin LacZ reporter signal relative to DMSO ([2]; 10 uM): 0.9216 | Burkin Assay in Myotubes, α7 integrin LacZ reporter signal relative to DMSO ([2]; 20 uM): 0.9266 | Burkin Assay in Myotubes, α7 integrin LacZ reporter signal relative to DMSO ([2]; 40 uM): 0.8181 | CMV-LACZ in Myoblasts (β-galactosidase activity relative to DMSO) ([3]; 0.5 uM): 1.1029 | CMV-LACZ in Myoblasts (β-galactosidase activity relative to DMSO) ([3]; 1 uM): 1.0442 | CMV-LACZ in Myoblasts (β-galactosidase activity relative to DMSO) ([3]; 5 uM): 0.8886 | CMV-LACZ in Myoblasts (β-galactosidase activity relative to DMSO) ([3]; 10 uM): 1.0295 | CMV-LACZ in Myoblasts (β-galactosidase activity relative to DMSO) ([3]; 20 uM): 1.0556 | CMV-LACZ in Myoblasts (β-galactosidase activity relative to DMSO) ([3]; 40 uM): 1.1100 | CMV-LACZ in Myotubes, signal relative to DMSO ([4]; 0.5 uM): 1.0943 | CMV-LACZ in Myotubes, signal relative to DMSO ([4]; 1 uM): 1.1590 | CMV-LACZ in Myotubes, signal relative to DMSO ([4]; 5 uM): 1.1124 | CMV-LACZ in Myotubes, signal relative to DMSO ([4]; 10 uM): 0.9960 | CMV-LACZ in Myotubes, signal relative to DMSO ([4]; 20 uM): 1.1484 | CMV-LACZ in Myotubes, signal relative to DMSO ([4]; 40 uM): 1.0947
